From patent US4791200A, “2-substituted-4-aryl-substituted thiazoles” (Ortho Pharmaceutical Corporation, priority 1987, dated 1988)
Like-named read-outs stand apart in the source and are kept apart here.

How the values were obtained:
parietal cells = assay: Isolated Parietal Cell Assay (14C-aminopyrine accumulation, histamine or dibutyryl cAMP stimulated); format: cell-based, rabbit; settings: Oryctolagus cuniculus
Description: The isolated parietal cell assay was conducted using the procedures of Batzri, S. et al., Biochemica et Biophysica Acta 508, 328 (1978) and Soll, A. H. Am. J. Physiol. 238, G366 (1980). Basically, parietal cells were isolated from the fundic mucosa of rabbit stomachs by a four-stage collagenase digestion process. The supernatant fractions from the last two stages of this process contain the individual parietal cells. This cell suspension was centrifuged and reconstituted in a modified Hank's buffer to contain 1-2×10^6 cells/ml. […] This accumulation was stimulated by histamine and was blocked by H2 antagonists. The cells were incubated with 0.4-0.5×10^6 cpm ^14 C-AP, with various concentrations of histamine as a stimulant, 1×10^-5 M isobutylmethylxanthine, and the test compound added in a 20 μl volume of buffer or DMSO. The flasks were incubated in a shaking water bath at 37° C. for 20 minutes. Two aliquots were then taken from each flask and cell pellets were collected by centrifugation. The pellets were solubilized with Protosol (New England Nuclear) and radioactivity determined by liquid scintillation spectrometry. Data is presented as the IC50 vhist, the concentration of compound required to inhibit ^14 C-AP accumulation in the histamine stimulated parietal cell by 50%.
When dibutyryl cAMP was used to stimulate the cells instead of histamine, a similar inhibition of ^14 C-AP accumulation was measured and the data are presented as the IC50 vcAMP, the concentration required to inhibit ^14 C-AP accumulation in the cAMP stimulated parietal cell by 50%.

[1] = molecular target: T1, parietal cell H^+ K^+ ATPase (Oryctolagus cuniculus, UniProt P27112); assay: Inhibition of Parietal Cell H^+ K^+ ATPase; format: biochemical, New Zealand white rabbits; settings: read-out: % Inhibition at Concentration; for inhibition at 100 µM: at 10^-4 M
T1 construct: determined in fundic mucosa from New Zealand white rabbits which were homogenized; from tissue; host or cells: fundic mucosa of New Zealand white rabbits, homogenized; membrane protein
T1 sequence (P27112 2-1035 limits assumed): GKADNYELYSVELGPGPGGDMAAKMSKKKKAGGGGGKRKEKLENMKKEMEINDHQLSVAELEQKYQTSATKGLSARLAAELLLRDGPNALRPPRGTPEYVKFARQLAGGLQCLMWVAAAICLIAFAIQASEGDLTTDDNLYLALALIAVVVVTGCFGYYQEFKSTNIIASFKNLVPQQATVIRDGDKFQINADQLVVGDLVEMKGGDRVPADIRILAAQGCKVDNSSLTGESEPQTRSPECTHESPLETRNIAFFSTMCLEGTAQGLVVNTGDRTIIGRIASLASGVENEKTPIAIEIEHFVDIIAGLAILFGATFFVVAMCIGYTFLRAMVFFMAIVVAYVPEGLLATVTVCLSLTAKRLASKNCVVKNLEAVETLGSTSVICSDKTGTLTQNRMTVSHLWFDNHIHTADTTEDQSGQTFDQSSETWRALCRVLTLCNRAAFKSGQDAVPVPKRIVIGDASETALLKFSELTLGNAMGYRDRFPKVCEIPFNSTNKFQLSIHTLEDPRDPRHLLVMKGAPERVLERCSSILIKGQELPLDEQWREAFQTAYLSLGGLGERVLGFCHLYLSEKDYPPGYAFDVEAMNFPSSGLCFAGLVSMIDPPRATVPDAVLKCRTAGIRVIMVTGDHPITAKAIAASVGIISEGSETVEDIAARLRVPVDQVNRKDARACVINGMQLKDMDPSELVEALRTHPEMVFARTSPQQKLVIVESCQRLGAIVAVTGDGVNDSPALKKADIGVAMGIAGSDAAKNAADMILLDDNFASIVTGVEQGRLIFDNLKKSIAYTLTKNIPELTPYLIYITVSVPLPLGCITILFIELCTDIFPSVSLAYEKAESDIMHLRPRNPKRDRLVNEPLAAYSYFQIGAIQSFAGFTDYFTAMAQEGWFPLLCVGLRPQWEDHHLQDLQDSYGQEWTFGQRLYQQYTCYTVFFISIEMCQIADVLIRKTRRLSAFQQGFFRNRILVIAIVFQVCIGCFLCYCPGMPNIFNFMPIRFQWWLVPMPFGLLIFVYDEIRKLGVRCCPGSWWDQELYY
T1 sequence (P18597 whole entry partner): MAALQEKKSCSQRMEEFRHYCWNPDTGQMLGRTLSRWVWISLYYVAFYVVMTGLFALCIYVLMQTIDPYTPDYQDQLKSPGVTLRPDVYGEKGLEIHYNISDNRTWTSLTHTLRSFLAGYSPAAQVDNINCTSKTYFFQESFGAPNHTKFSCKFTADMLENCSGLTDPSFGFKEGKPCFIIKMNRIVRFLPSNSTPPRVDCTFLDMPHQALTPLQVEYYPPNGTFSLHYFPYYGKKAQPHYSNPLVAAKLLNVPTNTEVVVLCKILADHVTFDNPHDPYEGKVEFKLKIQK
Description: The activity was measured in a 1 ml incubation volume containing 50 mM Tris pH 7.4, 2 mM MgCl2, 2 mM Na2 ATP, with or without 20 mM KCl and vehicle control (dimethylsulfoxide) or test compound added in a 0.02 ml volume. Typically, 20-50 μg membrane protein was added and the tubes were preincubated with test compound for 10 minutes at 37° C. Substrate, Na2 ATP, was then added and the tubes were incubated for another 15 minutes at 37° C. The reaction was stopped by the addition of 1 ml 14% trichloroacetic acid and the samples were centrifuged at 2,000 ×g for 10 minutes. The amount of inorganic phosphate present in an aliquot of supernatant was determined. H^+ K^+ ATPase activity was determined after correcting for the basal (Mg^++ only) enzyme activity present in the membrane preparation.

[2] = tested on: acid output (gastric secretion); assay: Gastric Secretion (pylorus ligation, modified Shay); format: in vivo, male Charles River Sprague Dawley derived rats; settings: i.d. or s.c., 4 hours after ligation; for response vs control in vivo at 40 mg/kg: at 40 mpK
Description: The inhibitory activity of the compounds on acid output was tested using pylorus ligation in a modification of the procedure of Shay, H. et al., Gastroenterology 26, 906 (1954). Basically, male Charles River Sprague Dawley derived rats weighing 150-300 grams were deprived of food but not water for 18-24 hours prior to use. Water was withheld during the experiment, however. The rats were weighed, anesthetized with ether and the pylorus ligated according to the method of Shay et al., supra. Treatment or vehicle control was then administered intraduodenally (i.d.) or subcutaneously (s.c.). Rats were housed two/cage and sacrificed with CO2 four hours after ligation. The stomachs were removed, rinsed, and contents emptied into a graduated centrifuge tube. The tubes were centrifuged, the volume of gastric juice recorded, and any samples obviously contaminated by feces, food or blood were eliminated. A 1 ml aliquot of gastric juice was titrated with 0.1N NaOH to a pH of 7.0-7.4. The volume of gastric juice secreted, the acid concentration, and the product of the volume times the concentration, i.e., the total amount of acid secreted, were measured.

[3] = 20 min, histamine stimulated, 37° C., 20 minutes, read-out: IC50 vhist (inhibition of 14C-AP accumulation in the histamine stimulated parietal cell)
[4] = dibutyryl cAMP stimulated, read-out: IC50 vcAMP (inhibition of 14C-AP accumulation in the cAMP stimulated parietal cell)
[5] = Rattus norvegicus, read-out: % Acid Secreted at mpK

IC50 (parietal cells; [3]) | IC50 (parietal cells; [4]) | inhibition at 100 µM [1] | Compound | response vs control in vivo at 40 mg/kg [2, 5] | % Acid Secreted at mpK ([2]; at 20 mpK) | further results
450 nM | 420 nM | 47% | CCCCN(CCCC)CCCOc1ccc(-c2csc(-c3ccccc3)n2)cc1 [Example 1, 4-(4-Dibutylaminopropoxyphenyl)-2-phenylthiazole] | 97% | 75% | response vs control in vivo at 17 mg/kg ([2]; Rattus norvegicus, at 17.0 mpK, read-out: % Acid Secreted at mpK): 50%
1500 nM | 8400 nM | 22% | CCCCN(CCCC)CCCOc1ccc(-c2csc(C)n2)cc1 [Example 2, 4-(4-Dibutylaminopropoxyphenyl)-2-methylthiazole] | – | 8% | –
270 nM | 230 nM | 65% | CCCCN(CCCC)CCCOc1ccc(-c2nc(-c3ccccc3)sc2C)cc1 [Example 3, 4-(4-Dibutylaminopropoxyphenyl)-5-methyl-2-phenylthiazole] | – | 36% | –
120 nM | 90 nM | – | CCN(CC)CCCOc1ccc(-c2csc(-c3ccccc3)n2)cc1 [Example 4, 4-(4-Diethylaminopropoxyphenyl)-2-phenylthiazole] | 82% | – | inhibition at 47 µM ([1]; at 47 μM): 50%
230 nM | 180 nM | 60% | CCCN(CCC)CCCOc1ccc(-c2csc(-c3ccccc3)n2)cc1 [Example 5, 4-(4-Dipropylaminopropoxyphenyl)-2-phenylthiazole] | 94% | – | –
180 nM | 120 nM | – | CN1CCN(CCCOc2ccc(-c3csc(-c4ccccc4)n3)cc2)CC1 [Example 6, 4-[4-(4-Methylpiperazol-1-yl)propoxyphenyl]-2-phenylthiazole] | 18% | – | inhibition at 44 µM ([1]; at 44 μM): 50%
480 nM | 340 nM | 28% | COc1ccccc1N1CCN(CCCOc2ccc(-c3csc(-c4ccccc4)n3)cc2)CC1 [Example 7, 4-[4-[4-(2-Methoxyphenyl)piperazol-1-yl]propoxyphenyl]-2-phenylthiazole] | – | – | –
110 nM | 50 nM | – | c1ccc(-c2nc(-c3ccc(OCCCN4CCCCC4)cc3)cs2)cc1 [Example 8, 4-[4-(3-Piperidino)propoxyphenyl]-2-phenylthiazole] | 92% | 46% | inhibition at 34 µM ([1]; at 34 μM): 50%; % Acid Secreted at mpK ([2]; at 10 mpK): 25%
390 nM | < 10000 nM | – | c1ccc(-c2nc(-c3ccc(OCCCN4CCCC4)cc3)cs2)cc1 [Example 9, 4-[4-(3-Pyrrolidino)propoxyphenyl]-2-phenylthiazole] | – | 36% | inhibition at 32 µM ([1]; at 32 μM): 50%
80 nM | 20 nM | – | c1ccc(-c2nc(-c3ccc(OCCCn4ccnc4)cc3)cs2)cc1 [Example 10, 4-[4-(1H-Imidazol-1-yl)propoxyphenyl]-2-phenylthiazole] | – | 91% | inhibition at 18 µM ([1]; at 18 μM): 50%; response vs control in vivo at 5 mg/kg ([2]; Rattus norvegicus, at 5 mpK, read-out: % Acid Secreted at mpK): 33%; response vs control in vivo at 5.7 mg/kg ([2]; Rattus norvegicus, at 5.7 mpK, read-out: % Acid Secreted at mpK): 50%; % Acid Secreted at mpK ([2]; at 10 mpK): 78%
370 nM | 210 nM | 39% | CN(CCCOc1ccc(-c2csc(-c3ccccc3)n2)cc1)Cc1ccccc1 [Example 11, 4-(4-Benzylmethylaminopropoxyphenyl)-2-phenylthiazole] | – | 48% | –
310 nM | 350 nM | 44% | CCCCN(CCCC)CCOc1ccc(-c2csc(-c3ccccc3)n2)cc1 [Example 12, 4-(4-Dibutylaminoethoxyphenyl)-2-phenylthiazole] | – | 41% | –
2100 nM | 1800 nM | 55% | CCCCN(CCCC)CCCOc1ccc(-c2csc(-c3ccc(Cl)cc3)n2)cc1 [Example 16] | – | 40% | –
480 nM | 230 nM | 33% | CCCCN(CCCC)CCCOc1ccc(-c2csc(-c3ccc(OC)cc3)n2)cc1 [Example 17, 4-(4-Dibutylaminopropoxyphenyl)-2-(4-methoxyphenyl)thiazole] | – | 4% | –
260 nM | 540 nM | 30% | CCCCN(CCCC)CCCOc1ccc(-c2csc(-c3cc(OC)cc(OC)c3)n2)cc1 [Example 18, 4-(4-Dibutylaminopropoxyphenyl)-2-(3,5-dimethoxyphenyl)thiazole] | – | 17% | –
1500 nM | 3000 nM | – | CCCCN(CCCC)CCCOc1ccc(-c2csc(-c3ccc(C)cc3)n2)cc1 [Example 19, 4-(4-Dibutylaminopropoxyphenyl)-2-(4-methylphenyl)thiazole] | – | 41% | inhibition at 24 µM ([1]; at 24 μM): 50%
2900 nM | 2000 nM | – | CCCCN(CCCC)CCCOc1ccc(-c2csc(-c3ccc(C(F)(F)F)cc3)n2)cc1 [Example 20, 4-(4-Dibutylaminopropoxyphenyl)-2-(4-trifluoromethylphenyl)thiazole] | 40% | – | inhibition at 10.6 µM ([1]; at 10.6 μM): 50%
1650 nM | 880 nM | – | CCCCN(CCCC)CCCOc1ccc(-c2csc(-c3cccnc3)n2)cc1 [Example 21, 4-(4-Dibutylaminopropoxyphenyl)-2-(3-pyridinyl)thiazole] | – | 19% | inhibition at 20 µM ([1]; at 20 μM): 50%
580 nM | 240 nM | 29% | CCCCN(CCCC)CCCOc1c(Cl)cc(-c2csc(-c3ccccc3)n2)cc1Cl [Example 22, 4-[3,5-Dichloro-4-(dibutylaminopropoxy)phenyl]-2-phenylthiazole] | – | 41% | –
400 nM | 460 nM | – | Clc1cc(-c2csc(-c3ccccc3)n2)cc(Cl)c1OCCCn1ccnc1 [Example 23, 4-[3,5-Dichloro-4-(1H-imidazol-1-yl)propoxyphenyl]-2-phenylthiazole] | – | 33% | inhibition at 2.4 µM ([1]; at 2.4 μM): 50%

Compound | IC50 (parietal cells; [3]) | IC50 (parietal cells; [4]) | inhibition at 100 µM [1] | response vs control in vivo at 40 mg/kg [2, 5] | % Acid Secreted at mpK ([2]; at 20 mpK) | further results
CCCCN(CCCC)CCCCOc1ccc(-c2csc(-c3ccccc3)n2)cc1 [Example 13] | 130 nM | 120 nM | 64% | 90% | 56% | –
c1ccc(-c2nc(-c3ccc(OCCCCn4ccnc4)cc3)cs2)cc1 [Example 14] | 820 nM | 310 nM | 0% | 31% | – | –
CCCCN(CCCC)CCCCCOc1ccc(-c2csc(-c3ccccc3)n2)cc1 [Example 15] | 490 nM | 860 nM | 58% | – | 54% | –
